Blank lines part the entries; values can stand above or below the substance they belong to. Ends that are not written are not given here. 3H = tritium label
Tests used:
[1] = Tissue distribution / brain accumulation of tritiated GPE after cardiac, iv, ip or icv administration; details: rat
Procedure: (§1) Tritiated GPE (Gly-[^3H]Pro-Glu, 1.6 ml, specific activity 50–60 Ci/mmol) obtained from Sibtech, Inc., USA was used in these experiments.
(§2) Adult Wistar rats (300 g) were prepared under halothane/O2 anaesthesia. The rats were randomly assigned to one of four groups: tritiated GPE, saline+0.1% BSA, tritiated GPE+non-tritiated GPE or tritiated proline. Rats in the tritiated GPE, tritiated proline and control groups were sacrificed at 30 min, 1 hr or 6 hrs after administration. Rats co-administered with both tritiated and non- tritiated GPE were sacrificed at 10 minutes after administration. For all groups, tissue was homogenized in Soluene® (a tissue solubilizer; Packard Bioscience Company, Meriden Conn.) and counted in a β counter.
(§3) Rats were injected with 10 million counts of tritiated GPE in 500 μl total (made up with 0.1% BSA in saline). Animals were sacrificed at 30 minutes, 1, 3 or 6 hrs. Tissue was homogenized in Soluene® and counted in a β counter.
(§4) Adult Wistar rats (300 g) were prepared under halothane/O2 anaesthesia. A guide cannula was placed on the dura 7.5 mm anterior from stereotaxic zero and 1.5 mm from midline on the right. One million counts of GPE and 600 μl of non-tritiated GPE were injected in 8 μl total volume (made up with 0.1% BSA in saline). Rats were sacrificed 30 minutes after administration. Tissue was homogenized in Soluene® and counted in a β counter.
(§5) Tritiated GPE, tritiated GPE+non-tritiated GPE, tritiated proline (Amersham) or tritiated proline+non-tritiated proline in vehicle (0.1M citrate buffer [pH6], diluted 10 times in 0.1% bovine serum albumin in 0.1M phosphate buffered saline [PBS] [pH7.3]) were then given by different routes of administration to injured and non-injured rats according to the following study design:
(§6) Cardiac administration was performed using a syringe. The syringe needle was placed into the left ventricle and one of the above four solutions was given.
(§7) IV administration was carried out by injecting one of the four solutions into the tail vein.
(§8) IP administration was performed by injecting one of the four solutions into the peritoneal cavity.
(§9) ICV administration was carried out according to the following procedure. The rats were lightly anaesthetized again using 0.15 ml Saffan™ (Pitman-Moore Ltd, NZ). The infusion of one of the four solutions was made into the right lateral ventricle guided by a metal cap fitted over the rat head using a modified technique originally described by Jirikowski (J Neuroscience Methods, 42: 115–118, 1992), in order to ensure correct placement of the infusion needle. One of the four solutions was administered in a single dose.
(§10) The rats were sacrificed using pentobarbital 10, 60 or 360 minutes after administration of either tritiated GPE or tritiated proline. […] Counts/minute/mg were made in the following tissues: kidney, blood, adrenal glands, liver, lung, testicle, heart, muscle, spinal cord and brain. HPLC was used in order to check that the particles counted were either tritiated GPE or tritiated proline.

[2] = test system: hypoxic-ischemic injury, hippocampal CA1/2 neurons; test: Neuronal survival after hypoxic-ischemic injury, GPE administered peripherally; assay type: in vivo; details: rat, GPE intraperitoneally 2 hours after hypoxia, sacrificed 7 days after injury, FIG. 4
Procedure: This experiment involved treating rats with a control vehicle or GPE administered peripherally 2 hours after a focal CNS injury. […] The degree and length of hypoxia, the ambient temperature and humidity were defmed to standardize the degree of damage. The neuronal death is restricted to the side of the carotid ligation and is primarily in the hippocampus, dentate gyrus, striatum and lateral cortex of the ligated hemisphere. There is no neuronal loss in the contralateral hemisphere.
Specifically forty-nine 50–60 day old adult Wistar rats (280–310 g) were prepared under halothane/O2 anaesthesia. The right side carotid artery was ligated. The rats were allowed to recover for 1 hour and were then placed in an incubator with humidity 90±5% and temperature 31±0.5° C. for 1 hour before hypoxia. Oxygen concentration was reduced and maintained at 6±0.2% 02 for 10 minutes. […]
The rats were transcardially perfised with 0.9% saline followed by 4% paraformaldehyde, and the brains were removed and embedded in paraffin. […] Only cells with a morphology like live neurons were counted, while dead neurons or cells with morphology like glia were not included. […]
A coronal section (A-P 4.5 mm) was used for analysis of the hippocampus. All surviving neurons in the hippocampal CA1/2 region of the injured hemisphere were counted. Data were analysed with paired t-test and presented as mean±sem (standard error of the mean).

[3] = rat, in vivo
Procedure: as §1, §2, §3, §4, §5, §6, §7, §8, §9, §10

[4] = test system: ^3H-Me-GPE binding sites in the rat brain; test: ^3H-Me-GPE binding autoradiography on rat tissue sections; details: excess (10 μM) of competitor
Procedure: After tritiation the reaction mixture was diluted in ammonium acetate buffer (0.05M, pH 5.5 with 20% v/v methanol, 10 ml) and purified using Accell CM- and QMA+Sep-Paks (Waters, Milford, Mass., USA) in series. After washing with the ammonium acetate buffer to remove reagents and byproducts (tritiated water and tritiated methanol), the CM- and QMA+cartridges were uncoupled and the ^3H-Me-GPE was eluted from the QMA cartridge with ammonium bicarbonate (0.3M, 6 ml). The eluted material was lyophilized twice to remove the bulk of the ammonium bicarbonate, dissolved in ethanol-water (1:19, 20 μl ) and aliquots stored at −70° C.
The following experimental protocol followed guidelines approved by the University of Auckland Animal Ethics Committee. Adult male Wistar rats were killed by decapitation and tissues immediately removed and stored at −80° C. Coronal sections (16 μm) were cut on a cryostat and mounted on gelatin-coated slides. Normal adult human postmortem brain (n=4) tissue was cut and mounted in a similar manner. […]

Substance: Gly-Pro-Glu [GPE]
uptake in the brain of rats with an hypoxic-ischemic brain injury ([1]; ICV administration): selectively taken up on the injured side of the brain
displacement when tritiated and non-tritiated GPE were administered together ([1]; cardiac administration, supported by ICV administration): the only displacement of GPE occurred in the brain
ability to pass through the blood-brain-barrier ([1]; including in the absence of neural insult): pass through the blood-brain-barrier
amount in the brain compared to the corresponding time-points after iv and cardiac injection ([1]; ip administration): increased
neuronal survival in the hippocampus after an hypoxic-ischemic injury [2]: increases neuronal survival

Substance: Gly-[^3H]Pro-Glu (Gly-Pro(3H)-Glu; UniProt P05019 49-51, looked up, fragment) [tritiated GPE]
amount in the brain relative to the blood [3]: increases over time
time-point at which there was the most tritiated GPE in the brain [3]: 60 min

blockade of ^3H-Me-GPE binding in the CA1-2 region [4]: blocked
Substance: N-methyl-GPE
